How the values were obtained:
Type in all cases: functional, cell-based
KB = assay: Cytotoxicity against human KB cells assessed as cell viability after 72 hrs by MTT assay
A549 = assay: Cytotoxicity against human A549 cells assessed as cell viability after 72 hrs by MTT assay; conditions: A549, 72 h
HCT-8 = assay: Cytotoxicity against human HCT8 cells assessed as cell viability after 72 hrs by MTT assay; conditions: HCT-8, 72 h
[1] = Cytotoxicity against human BGC803 cells assessed as cell viability after 72 hrs by MTT assay; conditions: BGC803, 72 h
KETR3 = assay: Cytotoxicity against human Ketr3 cells assessed as cell viability after 72 hrs by MTT assay; conditions: KETR3, 72 h
A2780 = assay: Cytotoxicity against human A2780 cells assessed as cell viability after 72 hrs by MTT assay; conditions: A2780, 72 h
MCF7 = assay: Cytotoxicity against human MCF7 cells assessed as cell viability after 72 hrs by MTT assay; conditions: MCF7, 72 h
HeLa = assay: Cytotoxicity against human HeLa cells assessed as cell viability after 72 hrs by MTT assay
[2] = Cytotoxicity against human HELF cells assessed as cell viability after 72 hrs by MTT assay
Bel-7402 = assay: Cytotoxicity against human Bel7402 cells assessed as cell viability after 72 hrs by MTT assay; conditions: Bel-7402, 72 h

`COC1=C(C)C(=O)C2=C(C1=O)[C@@H]1[C@@H]3CC4=C(C(=O)C(OC)=C(C)C4=O)[C@H](CNC(=O)c4cc5ccccc5[nH]4)N3[C@@H](C#N)[C@H](C2)N1C` showed an IC50 (KB) of 14.9 nM, an IC50 (A549) of 35 nM and an IC50 (HCT-8) of 90.5 nM. It also gave an IC50 [1] of 26.3 nM, an IC50 (KETR3) of 19.7 nM and an IC50 (A2780) of 11.2 nM. For the same molecule, the IC50 (MCF7) was 22.9 nM, the IC50 (HeLa) was 5.29 nM and the IC50 [2] was 17.5 nM. For the same molecule, the IC50 (Bel-7402) was 11.5 nM.

In the case of `COC1=C(C)C(=O)C2=C(C1=O)[C@@H]1[C@@H]3CC4=C(C(=O)C(OC)=C(C)C4=O)[C@H](CNC(=O)CNC(=O)c4ccccc4)N3[C@@H](C#N)[C@H](C2)N1C`, the IC50 (KB) is reported as 16.9 nM, the IC50 (A549) is reported as 10 nM and the IC50 (HCT-8) is reported as 58.5 nM. For the same molecule, the IC50 [1] was 27.7 nM, the IC50 (KETR3) was 23.6 nM and the IC50 (A2780) was 43.9 nM. For the same molecule, the IC50 (MCF7) was 39.5 nM, the IC50 (HeLa) was 10.7 nM and the IC50 [2] was 16.7 nM. It also gave an IC50 (Bel-7402) of 22.4 nM.

`COC1=C(C)C(=O)C2=C(C1=O)[C@@H]1[C@@H]3CC4=C(C(=O)C(OC)=C(C)C4=O)[C@H](CNC(=O)/C=C/c4ccc(OC)cc4)N3[C@@H](C#N)[C@H](C2)N1C` showed an IC50 (KB) of 9.04 nM, an IC50 (A549) of 23.8 nM and an IC50 (HCT-8) of 46.7 nM. It also gave an IC50 [1] of 6.91 nM, an IC50 (KETR3) of 11 nM and an IC50 (A2780) of 14.4 nM. The IC50 (MCF7) was 5.35 nM, the IC50 (HeLa) was 7.77 nM and the IC50 [2] was 4.88 nM. The IC50 (Bel-7402) was 6.23 nM.

`COC1=C(C)C(=O)C2=C(C1=O)[C@@H]1[C@@H]3CC4=C(C(=O)C(OC)=C(C)C4=O)[C@H](CNC(=O)/C=C/c4cccc(C(F)(F)F)c4)N3[C@@H](C#N)[C@H](C2)N1C` showed an IC50 (KB) of 11.7 nM, an IC50 (A549) of 77.1 nM and an IC50 (HCT-8) of 43.3 nM. For the same molecule, the IC50 [1] was 22.3 nM, the IC50 (KETR3) was 28.9 nM and the IC50 (A2780) was 39.8 nM. The IC50 (MCF7) was 4.2 nM, the IC50 (HeLa) was 7.9 nM and the IC50 [2] was greater than 100 nM. It also gave an IC50 (Bel-7402) of 29.7 nM.

Work on `COC1=C(C)C(=O)C2=C(C1=O)[C@@H]1[C@@H]3CC4=C(C(=O)C(OC)=C(C)C4=O)[C@H](CNC(=O)c4ccccn4)N3[C@@H](C#N)[C@H](C2)N1C` yielded an IC50 (KB) of 9.17 nM, an IC50 (A549) of 30 nM and an IC50 (HCT-8) of 22.1 nM. It also gave an IC50 [1] of 32.1 nM, an IC50 (KETR3) of 15.1 nM and an IC50 (A2780) of 11.9 nM. It also gave an IC50 (MCF7) of 15.6 nM, an IC50 (HeLa) of 7.27 nM and an IC50 [2] of 6.57 nM. It also gave an IC50 (Bel-7402) of 3.8 nM.

With `COC1=C(C)C(=O)C2=C(C1=O)[C@@H]1[C@@H]3CC4=C(C(=O)C(OC)=C(C)C4=O)[C@H](CNC(=O)/C=C/c4ccc(C(C)(C)C)cc4)N3[C@@H](C#N)[C@H](C2)N1C` the IC50 (KB) was 26.3 nM, the IC50 (A549) was greater than 100 nM and the IC50 (HCT-8) was greater than 100 nM. The IC50 [1] was 31 nM, the IC50 (KETR3) was greater than 100 nM and the IC50 (MCF7) was 25.6 nM. For the same molecule, the IC50 (HeLa) was 31.2 nM, the IC50 [2] was greater than 100 nM and the IC50 (Bel-7402) was greater than 100 nM.

Molecule `COC1=C(C)C(=O)C2=C(C1=O)[C@@H]1[C@@H]3CC4=C(C(=O)C(OC)=C(C)C4=O)[C@H](CNC(=O)OC(C)(C)C)N3[C@@H](C#N)[C@H](C2)N1C` has an IC50 (KB) of 29.4 nM, an IC50 (A549) of 34.3 nM and an IC50 (HCT-8) greater than 100 nM. For the same molecule, the IC50 [1] was 66.2 nM, the IC50 (KETR3) was 12.9 nM and the IC50 (A2780) was 22.7 nM. The IC50 (MCF7) was 8.89 nM, the IC50 (HeLa) was 7.41 nM and the IC50 [2] was 18.4 nM. It also gave an IC50 (Bel-7402) of 5.38 nM.

`COC1=C(C)C(=O)C2=C(C1=O)[C@@H]1[C@@H]3CC4=C(C(=O)C(OC)=C(C)C4=O)[C@H](CNC(=O)/C=C/c4ccc(OC)c(OC)c4OC)N3[C@@H](C#N)[C@H](C2)N1C` showed an IC50 (KB) of 9.85 nM, an IC50 (A549) of 81.8 nM and an IC50 (HCT-8) of 27.4 nM. It also gave an IC50 [1] of 6.27 nM, an IC50 (KETR3) of 15.5 nM and an IC50 (A2780) of 33.7 nM. The IC50 (MCF7) was 5.44 nM, the IC50 (HeLa) was 3.85 nM and the IC50 [2] was greater than 100 nM. For the same molecule, the IC50 (Bel-7402) was 11.4 nM.

For `CCc1ccc(/C=C/C(=O)NC[C@H]2C3=C(C[C@H]4[C@H]5C6=C(C[C@@H]([C@H](C#N)N24)N5C)C(=O)C(C)=C(OC)C6=O)C(=O)C(C)=C(OC)C3=O)cc1`, the IC50 (KB) was 28.4 nM, the IC50 (A549) was 96.7 nM and the IC50 (HCT-8) was greater than 100 nM. It also gave an IC50 [1] of 21.2 nM, an IC50 (KETR3) of 52.1 nM and an IC50 (A2780) of 25.5 nM. For the same molecule, the IC50 (MCF7) was 18.5 nM, the IC50 (HeLa) was 8.68 nM and the IC50 [2] was greater than 100 nM. The IC50 (Bel-7402) was 24.3 nM.

Work on `COC1=C(C)C(=O)C2=C(C1=O)[C@@H]1[C@@H]3CC4=C(C(=O)C(OC)=C(C)C4=O)[C@H](CNC(=O)c4nccc5ccccc45)N3[C@@H](C#N)[C@H](C2)N1C` yielded an IC50 (KB) of 75 nM, an IC50 (A549) of 88.6 nM and an IC50 (HCT-8) greater than 100 nM. For the same molecule, the IC50 [1] was 58.5 nM, the IC50 (KETR3) was greater than 100 nM and the IC50 (A2780) was 98 nM. It also gave an IC50 (MCF7) of 24.2 nM, an IC50 (HeLa) of 26.6 nM and an IC50 [2] of 85.4 nM. The IC50 (Bel-7402) was 84.7 nM.

Source: ChEMBL document CHEMBL1944637, “Asymmetric synthesis and cytotoxicity of (-)-saframycin A analogues” (Eur J Med Chem, 2012)
